From PubChem BioAssay (NCI)
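Test compounds were applied to cells in 96-well plates for 48 hours at 5 doses. GI50 = concentration required for 50% inhibition of growth. Definition used: TGI = concentration required for complete inhibition of growth.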

Legend:
Assay in all cases: inhibition of tumour cell growth, NCI panel, 48 h
TK-10 renal = test system: TK-10 renal
HL-60(TB) leukemia = test system: HL-60(TB) leukemia
SK-MEL-2 melanoma = test system: SK-MEL-2 melanoma
SF-539 CNS = test system: SF-539 CNS
U251 CNS = test system: U251 CNS
IGROV1 ovarian = test system: IGROV1 ovarian
MDA-MB-231 breast = test system: MDA-MB-231 breast
UO-31 renal = test system: UO-31 renal
HS 578T breast = test system: HS 578T breast
OVCAR-8 ovarian = test system: OVCAR-8 ovarian
EKVX NSCLC = test system: EKVX NSCLC
MDA-MB-435 = test system: MDA-MB-435
SK-MEL-28 melanoma = test system: SK-MEL-28 melanoma
CCRF-CEM leukemia = test system: CCRF-CEM leukemia
CAKI-1 renal = test system: CAKI-1 renal
DU-145 prostate = test system: DU-145 prostate
UACC-62 melanoma = test system: UACC-62 melanoma
HT29 colon = test system: HT29 colon
BT-549 breast = test system: BT-549 breast
NCI-H522 lung = test system: NCI-H522 lung
MCF7 breast = test system: MCF7 breast
K-562 leukemia = test system: K-562 leukemia
SF-295 CNS = test system: SF-295 CNS
SNB-75 CNS = test system: SNB-75 CNS
OVCAR-4 ovarian = test system: OVCAR-4 ovarian
M14 melanoma = test system: M14 melanoma
OVCAR-3 ovarian = test system: OVCAR-3 ovarian
COLO 205 colon = test system: COLO 205 colon
MOLT-4 leukemia = test system: MOLT-4 leukemia

## O=c1oc2ccc(-c3ccc(F)cc3F)cc2c(=O)n1-c1ccc(F)cc1
TK-10 renal
  GI50: 2780 nM
  TGI: > 100 µM
HL-60(TB) leukemia
  GI50: 2010 nM
  TGI: 6.13 µM
SK-MEL-2 melanoma
  GI50: 1790 nM
  TGI: 4.6 µM
SF-539 CNS
  GI50: 2880 nM
  TGI: 12.1 µM
U251 CNS
  GI50: 2820 nM
  TGI: 17.3 µM
IGROV1 ovarian
  GI50: 3.02 µM
  TGI: > 100 µM
MDA-MB-231 breast
  GI50: 1760 nM
  TGI: 4.41 µM
UO-31 renal
  GI50: 2300 nM
  TGI: 9.44 µM
HS 578T breast
  GI50: 2270 nM
  TGI: 7.51 µM
OVCAR-8 ovarian
  GI50: 3.52 µM
  TGI: > 100 µM
EKVX NSCLC
  GI50: 2800 nM
  TGI: > 100 µM
MDA-MB-435
  GI50: 1730 nM
  TGI: 7.09 µM
SK-MEL-28 melanoma
  GI50: 3.23 µM
  TGI: > 100 µM
CCRF-CEM leukemia
  GI50: 3.18 µM
  TGI: 9.84 µM
CAKI-1 renal
  GI50: 1480 nM
  TGI: 5.1 µM
DU-145 prostate
  GI50: 3.3 µM
  TGI: > 100 µM
UACC-62 melanoma
  GI50: 1370 nM
  TGI: 4.65 µM
HT29 colon
  GI50: 10.3 µM
  TGI: 75.8 µM
BT-549 breast
  GI50: 1920 nM
  TGI: 5.89 µM
NCI-H522 lung
  GI50: 1230 nM
  TGI: 6.15 µM
MCF7 breast
  GI50: 2510 nM
  TGI: > 100 µM
K-562 leukemia
  GI50: 1580 nM
  TGI: > 100 µM
SF-295 CNS
  GI50: 3.46 µM
  TGI: 12.8 µM
SNB-75 CNS
  GI50: 1380 nM
  TGI: 5.53 µM
OVCAR-4 ovarian
  GI50: 2080 nM
  TGI: 54.1 µM
M14 melanoma
  GI50: 3.49 µM
  TGI: > 100 µM
OVCAR-3 ovarian
  GI50: 2490 nM
  TGI: 14 µM
COLO 205 colon
  GI50: 16.3 µM
  TGI: 34.8 µM
MOLT-4 leukemia
  GI50: 2080 nM
